Measurements taken from patent US7790766B2, “Pharmaceutical compositions of short-acting sedative hypnotic agent” (Theravance, Inc., priority 2003, dated 2010).

Assay: Solubility in aqueous media
Format: physicochemical

## CCCOC(=O)Cc1ccc(OCC(=O)N(CC)CC)c(OCC)c1 [Compound 1, [4-[(N,N-diethylcarbamoyl)methoxy]-3-ethoxyphenyl]acetic acid propyl ester]
  Solubility in aqueous media: poorly, if, at all soluble
